The record followed here is patent publication US10485776B2, “Medicament for therapeutic treatment of neuropathic disease” (KEMPHYS LTD., priority 2013, dated 2019).

Data set [1] is described as follows: Serum pregabalin concentration after application to the back of an adult, LC/MS (Example 12). Type of data set: in vivo, human. The conditions noted are these: 150 mg in aqueous solution applied to the back. As to the method:
An aqueous solution containing pregabalin (150 mg) was applied to the back of an adult. After the application, blood was collected, and the serum was deproteinized, and then reacted with dinitrobenzenesulfonyl chloride to derivatize pregabalin. Pregabalin was quantified by LC/MS. The pregabalin concentration reached 9 ng/ml 30 minutes after the administration, and this concentration was maintained thereafter over 3 hours or longer.

The subject of data set [2] is neuropathic pain mouse (L5 and L6 nerve ligation). Put plainly: Suppression of allodynia pain in mouse nerve ligation model, von Frey filament. Type of data set: in vivo. The conditions noted are these: for pain threshold of nerve-ligated group vs medium solvent-applied group: hind leg immersed. The protocol: FIG. 1 is a graph showing results of measurement of analgesic effect obtained by applying an aqueous solution of pregabalin (2.5 mg/ml) to a neuropathic pain mouse. The asterisks (*) indicate the presence of a significant difference with respect to the distilled water-applied group.
FIG. 2 is a graph showing results of measurement of analgesic effect obtained by applying an aqueous solution of pregabalin (7.5 mg/ml) to a neuropathic pain mouse. The asterisks (*) indicate the presence of a significant difference with respect to the distilled water-applied group.
The nerves L5 and L6 of mice (n=6) were ligated with silk threads to prepare pain model. A sham group was prepared as a control (n=6). After 4 weeks, hind legs of the mice were immersed in a 2.5 mg/ml or 7.5 mg/ml aqueous solution of pregabalin (solution prepared by dissolving 75 mg of pregabalin in 10 ml or 30 ml of distilled water) 5 minutes before the measurement until the hair of whole right hind leg was wetted with the solution, and air-dried over 30 minutes after the application. In this state, pain threshold was measured by using a von Frey standard filament, and then pain threshold was measured in the same manner 60 minutes, 90 minutes, and 180 minutes thereafter.

Data set [3] concerns model leg (left) footpad of sciatic nerve-ligated rat. Put plainly: Rat pain test, Seltzer partial sciatic nerve ligation model, von Frey up-and-down method, model leg (left). Type of data set: in vivo.
The subject of data set [4] is normal leg (right) footpad of rat. As to the kind of experiment: Rat pain test, Seltzer model, von Frey up-and-down method, normal leg (right). It counts as in vivo.
Setting [5] is: model site, 1 mg/site on footpad, individual animals No. 71-78.
Setting [6] is: model site, 1 mg/site, average of 8 animals.
Where [7] appears, read: normal site, 1 mg/site on footpad, individual animals No. 71-78.
The mark [8] stands for this setting: normal site, 1 mg/site, average of 8 animals.

Where “and” joins values, the source holds several entries; their conditions need not be identical. Equal entries are not always repeated. Some results are limits rather than exact numbers.

For `CC(C)C[C@H](CN)CC(=O)O` [Pregabalin], the “time the serum concentration was maintained” value in data set [1] (9 ng/ml level) is not below 3 h. The compound further returned a concentration at 30 min in data set [1] (male, human, serum, topical, 30 minutes after the administration) of 9 ng/mL. For the same compound, the “pain threshold of nerve-ligated group vs medium solvent-applied group” value in data set [2] (2.5 mg/ml aqueous solution (low dose group), FIG. 1) was “statistically significant improvement”; in data set [2] (7.5 mg/ml aqueous solution (high dose group), FIG. 2), “statistically significant improvement”. Moreover, the “persistence of pain threshold improvement” value in data set [2] (both 2.5 and 7.5 mg/ml groups) is on record as “maintained even after 3 hours”. The “change of pain threshold values, pain model legs” value in data set [3] (10.0 mg/mL in water with 0.1% Tween 80, 0.10 mL on footpad, after 1 hour) is listed as “Sufficient increase”. The “pain threshold value, 1 Hour after administration” value in data set [3] (setting [5]) was 8.0 g and 2.0 g and 6.0 g (5×) and 4.0 g; in data set [4] (setting [7]) it was 10.0 g and 8.0 g and 15.0 g (2×) and 26.0 g (4×). Besides, the “pain threshold value, 3 Hour after administration” value in data set [3] (setting [5]) is 6.0 g (2×) and 2.0 g (2×) and 4.0 g (4×); in data set [4] (setting [7]) it was 10.0 g (3×) and 26.0 g (2×) and 15.0 g (3×). In addition, the “pain threshold value, 6 Hour after administration” value in data set [3] (setting [5]) is 4.0 g and 1.0 g (3×) and 2.0 g (4×); in data set [4] (setting [7]), 10.0 g (5×) and 8.0 g and 15.0 g (2×). Also, the figures for the “pain threshold value, 1 Hour after administration, Average” value in data set [3] (setting [6]) and in data set [4] (setting [8]) were 5.5 g and 19.0 g, respectively. The “pain threshold value, 3 Hour after administration, Average” value in data set [3] (setting [6]) amounted to 4.0 g; in data set [4] (setting [8]), 15.9 g. Besides, the “pain threshold value, 6 Hour after administration, Average” value in data set [3] (setting [6]) is reported as 1.9 g; in data set [4] (setting [8]), 11.0 g. Besides, the “pain threshold value, before administration, Average” value in data set [3] (model site, average of 8 animals, baseline before 1 mg/site) is recorded as 1.6 g; in data set [4] (normal site, average of 8 animals, baseline before 1 mg/site), 10.8 g. Besides, the “pain threshold value, before administration” value in data set [3] (model site, individual animals No. 71-78, baseline before 1 mg/site) is 2.0 g (2×) and 1.4 g (6×); in data set [4] (normal site, individual animals No. 71-78, baseline before 1 mg/site) it was 8.0 g (2×) and 10.0 g (4×) and 15.0 g (2×). Further, the “change of pain threshold value, normal leg” value in data set [4] (10.0 mg/mL in water with 0.1% Tween 80, 0.10 mL on footpad) is on record as “Increase of the threshold value was also observed”.
